Data reported in article PMC9594047, “Identification of the Allosteric Binding Site for Thiazolopyrimidine on the C-Type Lectin Langerin” (ACS Chemical Biology, 2022).
Numbering of substitutions follows the chain as printed. Each block holds one compound with its values, some of them ahead of it. Where a SMILES comes first, the peptide text is derived from it.

Experiments:
[1] = biological target: T1, human Langerin (hLang) CRD wild type (Homo sapiens, UniProt Q9UJ71); assay: 1H-15N HSQC NMR titration, hLang CRD wild type; type: binding; settings: for Kd / 15N HSQC KD hLang (Human-WT): hLang CRD wild type, from CSP trajectories, 298 K, pH 6; for Kd: read-out: 15N HSQC KD hLang (Human-WT)
T1 construct: ranging from amino acids 193 - 328 and; His-tag (N); made in house; host or cells: E. coli BL21
Procedure: (§1) Protein expression and purification hLang and mLang CRD wild type and all the mutants, ranging from amino acids 193 - 328 and 194 - 331, were cloned from a codon-optimized Langerin gene for bacterial expression (GenScript, Piscataway, NJ, USA) into a pET-28a vector (GenScript, Piscataway, NJ, USA) carrying an N-terminal His-tag and a T7 promoter. All constructs were expressed in E. coli BL21 (ThermoFisher Scientific, Waltham, MA, USA) in LB medium or in M9 medium at 37 °C. Protein expression was induced by adding 1 mM IPTG (isopropyl β-D-1-thiogalactopyranoside) at an OD600 between 0.7 - 1 and were grown overnight at 37 °C. Bacteria were harvested by centrifugation at 4000 g for 30 mins. Cells were lysed in lysis buffer (50 mM Tris, 150 mM NaCl, 10 mM MgCl2, 0.1% Tween-20, pH 8) with 1 mg/mL lysozyme (Sigma Aldrich, St. Louis, MO, USA) and 100 μg/mL DNase I (Applichem, Darmstadt, Germany) for at least 3 h at room temperature or 4 °C overnight or sonicated 1 h with amplitude 55%. Inclusion bodies were harvested by centrifugation at 15000 g […]
(§2) Inclusion bodies were washed twice with lysis buffer and ultrapure water to remove cell debris and soluble proteins. Then inclusion bodies were denatured with 20 mL of denaturation buffer (6 M guanidinium hydrochloride in 100 mM Tris (pH 8)) with 0.01% β -mercaptoethanol for at least 1 h at 37 °C, shaking at 220 rpm. The supernatant was slowly diluted 1:10 with CTL refolding buffer (0.4 M L-arginine in 50 mM Tris, 20 mM NaCl, 0.8 mM KCl, pH 8.3) with 1 mM reduced glutathione (GSH) and 0.1 mM oxidized glutathion e (GSSG) while stirring at 4 °C for at least 48 h after centrifugation (15,000 x g, 90 min, 4 °C). The refolded protein solution was dialyzed against 5 L TBS buffer (50 mM Tris, 150 mM NaCl, 5 mM CaCl 2) and then centrifuged to remove precipitated protein (15,000 x g, 90 min, 4 °C). The supernatant was purified by Ni -NTA agarose […]
(§3) affinity chromatography (Thermo Fisher) and the fractions of the elution were pooled and dialyzed against MES buffer (25 mM MES, 40 mM NaCl, 5 mM CaCl2, pH 6). Precipitated protein was removed by centrifugation (15,000 x g, 90 min, 4 °C) and the supernatant was used for experiments. We then concentrated protein with 5 - 6 mg/mL as the final concentration.
(§4) 1H-15N HSQC NMR measurements and backbone resonance assignment
(§5) NMR assignment and 15N-HSQC NMR for CSP plot and KD calculations were performed on a 700 MHz Bruker Advance III spectrometer (Bruker, Billerica, MA, USA) equipped with a PRODIGY probe. For mLang CRD backbone assignment, we performed a series of standard triple resonance experiments HNCA, HNCACB, HN(CO)CA and HN(CO)CACB as Hanske et al. described.1 Data was analyzed by using CcpNmr 2.5.1.2 In total, 88% of the residues were unambiguously assigned.
(§6) Most of the unassigned residues are prolines or residues in the mobile loops near the CBS, as reported for similar protein for example human Langerin.1 For the sample preparation, we used 300 µM 15N and 13C labeled protein, which is in 25 mM MES, 40 mM NaCl, 5 mM CaCl2, pH 6 containing 100 μM DSS, 0.05% NaN3, and 10% D2O buffer. 1H–15N HSQC NMR titrations experiments were performed with 100 μM of Langerin CRD containing 50 μM 4,4-dimethyl-4-silapentane-1-sulfonic acid (DSS) as an internal reference, and 10% D2O. 128 increments and 4 - 16 transients were recorded at 298 K, depending on the protein concentration and the machine implemented. NMR titration data were processed and analyzed, as previously done in Hanske et al. described (2016).1 The protein sample was added stepwise for titration of the thiazolopyrimidine derivatives or peptides until the most solubility tolerance was reached as the final concentration. Step size according to expected KD varied.

[2] = biological target: T2, murine Langerin (mLang) CRD wild type (Mus musculus, UniProt Q8VBX4); assay: 1H-15N HSQC NMR titration, mLang CRD wild type; type: binding; settings: from CSP trajectories, 298 K; for Kd: pH 6, read-out: 15N HSQC KD mLang (Murine-WT); for 15N HSQC KD mLang (Murine-WT): pH 6
T2 construct: 194 - 331, were cloned from a codon-optimized Langerin gene; His-tag (N); made in house; host or cells: E. coli BL21
T2 sequence (Q8VBX4 194-331): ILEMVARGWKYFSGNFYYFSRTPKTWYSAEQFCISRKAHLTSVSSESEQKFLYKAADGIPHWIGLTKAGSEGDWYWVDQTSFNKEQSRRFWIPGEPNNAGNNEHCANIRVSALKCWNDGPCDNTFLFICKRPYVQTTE
Procedure: as §1, §2, §3, §4, §5, §6

[3] = biological target: T3, hLang M260S-S265Y (Homo sapiens, UniProt Q9UJ71, M260S/S265Y); assay: 1H-15N HSQC NMR titration, hLang CRD double mutant; type: binding; settings: for Kd: hLang CRD M260S-S265Y mutant
T3 construct: ranging from amino acids 193 - 328 and; His-tag (N); made in house; host or cells: E. coli BL21
Procedure: as §1
Inclusion bodies were washed twice with lysis buffer and ultrapure water to remove cell debris and soluble proteins. […]
as §5
Most of the unassigned residues are prolines or residues in the mobile loops near the CBS, as reported for similar protein for example human Langerin.1 For the sample preparation, we used 300 µM 15N and 13C labeled protein, which is in 25 mM MES, 40 mM NaCl, 5 mM CaCl2, pH 6 containing 100 μM DSS, 0.05% NaN3, and 10% D2O buffer. […] 128 increments and 4 - 16 transients were recorded at 298 K, depending on the protein concentration and the machine implemented. […]

[4] = biological target: T4, mLang S263M-Y268S (Mus musculus, UniProt Q8VBX4, S263M/Y268S); assay: 1H-15N HSQC NMR titration, mLang CRD double mutant; type: binding, murine; settings: for Kd: mLang CRD S263M-Y268S mutant, read-out: 15N HSQC KD Murine-S263M-Y268S
T4 construct: 194 - 331, were cloned from a codon-optimized Langerin gene; His-tag (N); made in house; host or cells: E. coli BL21
T4 sequence (Q8VBX4 194-331 S263M/Y268S): T2 sequence (Q8VBX4 194-331) with S70M, Y75S
Procedure: as §1
Inclusion bodies were washed twice with lysis buffer and ultrapure water to remove cell debris and soluble proteins. Then inclusion bodies were denatured with 20 mL of denaturation buffer (6 M guanidinium hydrochloride in 100 mM Tris (pH 8)) with 0.01% β -mercaptoethanol for at least 1 h at 37 °C, shaking at 220 rpm. […]
as §5
as §6, with “1H–15N HSQC NMR titrations experiments were performed with 100 μM of Langerin CRD containing 50 μM 4,4-dimethyl-4-silapentane-1-sulfonic acid (DSS) as an internal reference, and 10% D2O.” left out, “Step size according to expected KD varied.” left out

T1 sequence (Q9UJ71 193-328): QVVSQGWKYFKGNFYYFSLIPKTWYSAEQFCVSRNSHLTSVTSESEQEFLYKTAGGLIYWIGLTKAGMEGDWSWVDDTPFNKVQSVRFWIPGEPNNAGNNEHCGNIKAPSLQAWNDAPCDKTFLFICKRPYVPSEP
T3 sequence (Q9UJ71 193-328 M260S/S265Y): as the sequence (Q9UJ71 193-328) above, with M68S, S73Y counted along it

SMILES: C[C@H](N)C(=O)N[C@@H](Cc1c[nH]c2ccccc12)C(=O)N[C@@H](CO)C(=O)O [AWS] (H-Ala-Trp-Ser-OH)
Kd [1]: 2400 ± 940 µM | Kd [2]: 1600 ± 300 µM

SMILES: Cc1csc2ncc(C(=O)O)c(=O)n12 [Compound 5]
15N HSQC KD hLang (Human-WT) [1]: no detectable binding and nb | 15N HSQC KD mLang (Murine-WT) [2]: micromolar affinity | Kd [2]: 610 ± 110 µM

SMILES: O=C(NCc1ccc2c(c1)OCO2)c1c(O)nc2sccn2c1=O [Compound 7]
15N HSQC KD hLang (Human-WT) [1]: no detectable binding and nb | 15N HSQC KD mLang (Murine-WT) [2]: micromolar affinity | Kd [2]: 280 ± 160 µM

SMILES: C[C@H](NC(=O)[C@@H](N)CO)C(=O)N[C@@H](Cc1c[nH]c2ccccc12)C(=O)N[C@@H](CO)C(=O)O [SAWS] (H-SAWS-OH)
15N HSQC KD hLang (Human-WT) [1]: high-micromolar affinity | Kd [1]: 820 ± 130 µM | 15N HSQC KD mLang (Murine-WT) [2]: high-micromolar affinity | Kd [2]: 670 ± 230 µM

SMILES: N[C@@H](CO)C(=O)N[C@@H](CO)C(=O)N[C@@H](Cc1c[nH]c2ccccc12)C(=O)N[C@@H](CO)C(=O)O [SSWS] (H-SSWS-OH)
Kd [2]: 460 ± 30 µM

Further lines, with some results ahead:

Kd [1]: 130 ± 40 µM | fold higher affinity for hLang compared to mLang ([1]; hLang vs mLang wild type): more than 10 fold | Kd [2]: 1800 ± 600 µM | Kd [3]: 340 ± 220 µM | fold decrease in affinity to hLang M260S-S265Y compared to WT ([3]; mutant vs WT): 3 fold | Kd [4]: 480 ± 340 µM | fold increase in affinity for mLang S263M-Y268S compared to WT ([4]; mutant vs WT): 3 fold
SMILES: O=C(O)c1cnc2sccn2c1=O [Compound 1]

15N HSQC KD mLang (Murine-WT) [2]: micromolar affinity | Kd [2]: 160 ± 60 µM | Kd [3]: 450 ± 280 µM | Kd [4]: 1740 ± 160 µM | fold decrease in binding affinity to mLang S263M-Y268S compared to WT ([4]; mutant vs WT): 10 fold
SMILES: COc1ccccc1CNC(=O)c1cnc2sccn2c1=O [Compound 2]
15N HSQC KD hLang (Human-WT) [1]: not detectable and no detectable binding and nb

Kd [1]: 110 ± 40 µM | Kd [2]: 1140 ± 60 µM
SMILES: O=C(NCCc1cn2c(n1)SCC2)c1cnc2sccn2c1=O [Compound 3]

Kd [1]: 900 ± 300 µM | Kd [2]: 400 ± 140 µM
SMILES: Cc1sc2ncc(C(=O)O)c(=O)n2c1C [Compound 4]

15N HSQC KD hLang (Human-WT) [1]: no detectable binding and nb | 15N HSQC KD mLang (Murine-WT) [2]: micromolar affinity | Kd [2]: 230 ± 60 µM
SMILES: COc1cc2c(cc1OC)CC(NC(=O)c1cnc3sccn3c1=O)C2 [Compound 6]
